The values below come from paper PMC5108032, “Discovery of a Quinoline-4-carboxamide Derivative with a Novel Mechanism of Action, Multistage Antimalarial Activity, and Potent in Vivo Efficacy” (Journal of Medicinal Chemistry, 2016).

This series in a line: Mammalian cell growth inhibition counter-screen (resazurin). The class given is cell-based, human. The conditions noted are these: human, MRC-5 cells (normal diploid human fibroblasts). Here is the method: Plasmodium falciparum screening
Assays against P. falciparum were conducted as previously described.1 Cultures of the widely-used malaria reference strain of chloroquine-sensitive Plasmodium falciparum strain 3D7 were maintained in a 5% suspension of human red blood cells (obtained from East of Scotland Blood Transfusion Service, Ninewells Hospital, Dundee) cultured in RPMI 1640 medium (pH 7.3) supplemented with 0.5% Albumax II (Gibco Life Technologies, San Diego, CA), 12 mM sodium bicarbonate, 0.2 mM hypoxanthine and 20 mg/L gentamicin at 37°C, in a humidified atmosphere of 1% O 2, 3% CO2 with a balance of nitrogen. Growth inhibition was quantified using a fluorescence assay utilising the binding of SYBR green to double stranded DNA, which emits a fluorescent signal at 528 nm after excitation at 485nm.2 Mefloquine (potency range 30-60 nM) was used as a drug control to monitor the quality of the assay (Z’ = 0.6 to 0.8, Signal to background >3, where Z’ is a measure of the discrimination between the positive and negative controls on a screen plate). A 96-well [3H]-Hypoxanthine incorporation assay was also developed as a secondary assay in order to validate compounds from the initial screen in an orthogonal platform.3 Compound bioactivity from both assays was expressed as […]
P. falciparum (panel of resistant strains) in vitro assay. (Swiss TPH)
All Plasmodium strains were cultured according to Trager and Jensen and are described at www.beiresources.org (resistant strains: K1, W2, 7G8, TM90C2A, D6 and V1/S, sensitive strain:
NF54). EC50 values were determined in vitro by measuring incorporation of the nucleic acid precursor […]
Mammalian Cell Growth Inhibition assay
A counter-screen against normal diploid human fibroblasts (MRC-5 cell line) was carried out to exclude non-selective, and toxic compounds. The assay was essentially carried out as described previously.4 Cells were plated and incubated overnight to allow them to adhere as monolayers. A working stock of each test compound was transferred to an intermediate 384-well plate and pre-diluted with minimum essential media (MEM). The pre-diluted stocks were then transferred onto the cell monolayers, and the plates were incubated for 68 h. Resazurin, to a final concentration of 50 μM, was added to each well, after which plates were incubated for a further 3 h and measured for fluorescence (λex=528 nm, λem=590 nm)
In vitro Cell Assay Data Analysis.
All data was processed using IDBS ActivityBase® raw data was converted into per cent inhibition through linear regression by setting the high inhibition control as 100% and the no inhibition control as 0%. Quality control criteria for passing plates were as follows: Z’> 0.5, S:B> 3, %CV(no inhibition < 15 . The formula used to calculate Z’ is 1 3× (St D e v _ hi gh + St D e v _ low) . […]
All EC50 Curve fitting was undertaken using XLFit version 4.2 using Model 205 with the following 4 parametric equation: y = A + B A A + ($-&) ,where A=% inhibition at bottom, B=% […]
inhibition at top, C= EC50, D= slope, x= inhibitor concentration and y= % inhibition. […]
reach 100% of inhibition, B was fixed to 100 only when at least 50% of inhibition was reached.
Plasmodium falciparum late stage (IV-V) gametocyte high content imaging assay Plasmodium falciparum NF54-pfs16-LUC-GFP stage IV-V Gametocytes were produced as described previously.5 Compounds were solubilized in DMSO and serially diluted in three concentrations per log standard curves in DM SO. One µl of compound was subsequently diluted in 25µl of water (4% DMSO) and 5µl transferred into the base of 384 well PerkinElmer CellCarrier plates. Forty-five µl of stage IV-V gametocytes (10%P in 0.1%H) were added to the imaging plates which were in turn sealed with a gas permeable membrane and incubated at 37°C, 5% CO 2, 5% O2, 90% N2 and 60% humidity […]
Post incubation, 5µl of MitoTracker® Red CM -H2Xros (MTR) solution (0.66ug/ml) was added to all wells and the plates incubated for a further 16hours. […]

Where only a bound is given, the exact number is not on record here.

The compound `O=C(NCCN1CCCC1)c1cc(-c2ccc(CN3CCOCC3)cc2Cl)nc2ccc(F)cc12` [Compound 42, 2-(2-Chloro-4-(morpholinomethyl)phenyl)-6-fluoro-N-(2-(pyrrolidin-1-yl)ethyl)quinoline-4-carboxamide] had a 50% effective concentration (EC50) at 68 h of over 50 µM.
